According to patent US20240383875A1, “Benzimidazole Pyridine Derivatives” (Hoffmann-La Roche Inc., priority 2022, published 2024):

Experiments:
Format in all cases: biochemical
SIK1 = SIK1 (Homo sapiens, UniProt P57059); experiment: Enzymatic activity assay SIK1, RapidFire mass spectrometry (phosphorylation of CHK-peptide); conditions: RapidFire MS, inhibition of SIK1; read-out: SIK1 RF IC50
Summary of the method: (§1)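 Compounds (12-point, 3-fold, generally 30 μM to 170 pM) were pre-incubated 30 min at ambient temperature with SIK1 (5 nM), SIK2 (0.5 nM) or SIK3 (1.5 nM) in HEPES pH 7.0/magnesium acetate buffer. CHK-peptide (10 μM solution) and ATP (100 μM solution) were then added for 45 min before formic acid quench.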

SIK3 = SIK3 (Homo sapiens, UniProt Q9Y2K2); experiment: Enzymatic activity assay SIK3, RapidFire mass spectrometry (phosphorylation of CHK-peptide); conditions: RapidFire MS, inhibition of SIK3; read-out: SIK3 RF IC50
Summary of the method: as §1

SIK2 = SIK2 (Homo sapiens, UniProt Q9H0K1); experiment: Enzymatic activity assay SIK2, RapidFire mass spectrometry (phosphorylation of CHK-peptide); conditions: RapidFire MS, inhibition of SIK2; read-out: SIK2 RF IC50
Summary of the method: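 SIK2 (0.5 nM) in pH 7.0 HEPES buffer with 10 mM Mg acetate phosphorylates CHK-peptide (10 μM solution) with 100 μM ATP solution, 45 min ambient, then formic acid quench.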

SIK1, sequence (P57059 whole entry): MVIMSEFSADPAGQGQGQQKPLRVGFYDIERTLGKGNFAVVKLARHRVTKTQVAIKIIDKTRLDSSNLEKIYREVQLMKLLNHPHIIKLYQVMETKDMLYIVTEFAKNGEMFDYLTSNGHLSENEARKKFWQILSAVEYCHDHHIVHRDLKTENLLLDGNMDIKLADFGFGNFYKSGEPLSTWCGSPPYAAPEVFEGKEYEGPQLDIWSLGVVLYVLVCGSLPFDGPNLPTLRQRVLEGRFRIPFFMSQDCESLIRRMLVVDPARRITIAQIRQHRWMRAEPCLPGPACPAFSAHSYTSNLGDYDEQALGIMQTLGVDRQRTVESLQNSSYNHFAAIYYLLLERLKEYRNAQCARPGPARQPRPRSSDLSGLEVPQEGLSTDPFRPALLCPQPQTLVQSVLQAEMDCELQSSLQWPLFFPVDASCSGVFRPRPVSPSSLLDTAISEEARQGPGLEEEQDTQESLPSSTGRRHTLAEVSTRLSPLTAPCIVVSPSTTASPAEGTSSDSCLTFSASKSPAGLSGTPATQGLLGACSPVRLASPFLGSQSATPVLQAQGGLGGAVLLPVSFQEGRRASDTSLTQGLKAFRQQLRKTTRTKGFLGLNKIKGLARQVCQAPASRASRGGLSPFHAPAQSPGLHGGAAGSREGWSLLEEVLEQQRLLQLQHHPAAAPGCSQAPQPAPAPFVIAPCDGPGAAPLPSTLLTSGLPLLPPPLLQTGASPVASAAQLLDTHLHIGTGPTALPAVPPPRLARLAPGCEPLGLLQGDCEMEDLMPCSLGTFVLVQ
SIK3, sequence (Q9Y2K2 whole entry): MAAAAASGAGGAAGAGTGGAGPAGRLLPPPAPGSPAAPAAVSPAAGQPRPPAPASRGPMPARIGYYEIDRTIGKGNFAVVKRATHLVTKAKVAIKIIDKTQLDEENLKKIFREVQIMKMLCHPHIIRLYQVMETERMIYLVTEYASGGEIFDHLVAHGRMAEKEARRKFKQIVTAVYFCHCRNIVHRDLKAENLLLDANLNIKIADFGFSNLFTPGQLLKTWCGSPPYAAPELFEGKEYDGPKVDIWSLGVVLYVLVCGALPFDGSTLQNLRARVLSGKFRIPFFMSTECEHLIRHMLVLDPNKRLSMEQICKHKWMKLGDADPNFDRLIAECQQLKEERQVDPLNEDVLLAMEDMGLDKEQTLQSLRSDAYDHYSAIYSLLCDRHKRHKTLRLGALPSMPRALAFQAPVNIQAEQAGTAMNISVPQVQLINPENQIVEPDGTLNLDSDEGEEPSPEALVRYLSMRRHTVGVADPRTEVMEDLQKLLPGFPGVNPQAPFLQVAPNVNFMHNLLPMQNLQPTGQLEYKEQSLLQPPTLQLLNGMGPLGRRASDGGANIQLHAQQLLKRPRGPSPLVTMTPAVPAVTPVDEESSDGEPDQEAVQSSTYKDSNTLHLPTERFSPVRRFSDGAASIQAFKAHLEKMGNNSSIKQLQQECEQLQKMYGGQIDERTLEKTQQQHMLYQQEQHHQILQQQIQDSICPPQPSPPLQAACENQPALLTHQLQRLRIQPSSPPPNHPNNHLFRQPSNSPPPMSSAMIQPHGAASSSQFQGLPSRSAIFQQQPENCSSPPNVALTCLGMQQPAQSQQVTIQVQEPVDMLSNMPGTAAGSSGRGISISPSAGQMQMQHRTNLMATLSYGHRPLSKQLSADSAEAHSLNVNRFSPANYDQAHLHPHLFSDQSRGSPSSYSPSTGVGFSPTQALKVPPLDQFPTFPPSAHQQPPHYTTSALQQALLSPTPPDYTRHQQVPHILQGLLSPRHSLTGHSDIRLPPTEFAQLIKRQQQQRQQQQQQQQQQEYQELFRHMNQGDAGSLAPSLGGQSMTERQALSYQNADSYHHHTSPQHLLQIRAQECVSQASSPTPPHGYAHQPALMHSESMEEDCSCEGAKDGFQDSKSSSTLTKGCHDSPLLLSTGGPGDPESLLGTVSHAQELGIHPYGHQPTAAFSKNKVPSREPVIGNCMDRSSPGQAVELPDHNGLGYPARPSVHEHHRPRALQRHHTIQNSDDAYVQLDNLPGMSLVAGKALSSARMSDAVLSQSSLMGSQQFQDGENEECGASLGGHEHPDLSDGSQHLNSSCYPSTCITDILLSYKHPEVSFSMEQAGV
SIK2, sequence (Q9H0K1 whole entry): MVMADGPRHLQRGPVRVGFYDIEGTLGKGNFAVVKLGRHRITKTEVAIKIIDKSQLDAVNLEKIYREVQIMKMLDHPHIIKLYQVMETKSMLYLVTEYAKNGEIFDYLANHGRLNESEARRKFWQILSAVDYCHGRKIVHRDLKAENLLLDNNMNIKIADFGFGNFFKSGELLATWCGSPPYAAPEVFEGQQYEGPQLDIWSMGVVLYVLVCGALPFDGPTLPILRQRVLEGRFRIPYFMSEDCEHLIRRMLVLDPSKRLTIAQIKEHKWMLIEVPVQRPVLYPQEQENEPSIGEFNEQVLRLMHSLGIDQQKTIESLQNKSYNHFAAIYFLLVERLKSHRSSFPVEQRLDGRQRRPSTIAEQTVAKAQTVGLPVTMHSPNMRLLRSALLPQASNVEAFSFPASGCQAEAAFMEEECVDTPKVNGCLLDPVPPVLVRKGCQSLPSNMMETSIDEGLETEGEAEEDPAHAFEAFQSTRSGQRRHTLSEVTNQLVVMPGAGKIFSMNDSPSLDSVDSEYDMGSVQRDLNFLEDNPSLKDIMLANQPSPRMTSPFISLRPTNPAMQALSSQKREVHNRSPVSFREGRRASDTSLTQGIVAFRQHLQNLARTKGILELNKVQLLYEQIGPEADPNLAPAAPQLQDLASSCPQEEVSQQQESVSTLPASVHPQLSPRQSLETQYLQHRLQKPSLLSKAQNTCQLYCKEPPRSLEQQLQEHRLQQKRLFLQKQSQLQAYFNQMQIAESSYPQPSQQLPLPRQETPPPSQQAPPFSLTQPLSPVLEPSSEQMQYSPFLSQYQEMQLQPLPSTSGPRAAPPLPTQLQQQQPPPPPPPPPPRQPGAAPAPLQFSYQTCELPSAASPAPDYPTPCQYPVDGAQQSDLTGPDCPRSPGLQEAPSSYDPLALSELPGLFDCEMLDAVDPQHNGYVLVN

Compound	IC50 (SIK1)	IC50 (SIK3)	IC50 (SIK2)
Cc1ccc(Nc2ccc3c(c2)ncn3-c2ccc(C(C)O)c(-c3cnn(CC4CCC4)c3C)n2)nn1 (stereo not drawn) [Example 273, 1-[2-[1-(Cyclobutylmethyl)-5-methyl-pyrazol-4-yl]-6-[5-[(6-methylpyridazin-3-yl)amino]benzimidazol-1-yl]-3-pyridyl]ethanol; formic acid]	115 nM	1.5 nM	1.2 nM
Cc1ccc(Nc2ccc3c(c2)ncn3-c2ccc(C(C)O)c(-c3cn(CC4CCC4)nc3C)n2)nn1 (stereo not drawn) [Example 274, 1-[2-[1-(Cyclobutylmethyl)-3-methyl-pyrazol-4-yl]-6-[5-[(6-methylpyridazin-3-yl)amino]benzimidazol-1-yl]-3-pyridyl]ethanol]	120 nM	1.1 nM	1.2 nM
Cc1ccc(Nc2ccc3c(c2)ncn3-c2ccc(C(C)O)c(-c3cn(C4CC4(F)F)nc3C)n2)nn1 (stereo not drawn) [Example 277, 1-[2-[1-(2,2-difluorocyclopropyl)-3-methyl-pyrazol-4-yl]-6-[5-[(6-methylpyridazin-3-yl)amino]benzimidazol-1-yl]-3-pyridyl]ethanol]	521 nM	1.8 nM	2 nM
COC(C)Cn1cc(-c2nc(-n3cnc4cc(Nc5ccc(C)nn5)ccc43)ccc2C(C)O)c(C)n1 (stereo not drawn) [Example 278, 1-[2-[1-(2-methoxypropyl)-3-methyl-pyrazol-4-yl]-6-[5-[(6-methylpyridazin-3-yl)amino]benzimidazol-1-yl]-3-pyridyl]ethanol]	249 nM	4.7 nM	2 nM
COC(C)Cn1ncc(-c2nc(-n3cnc4cc(Nc5ccc(C)nn5)ccc43)ccc2C(C)O)c1C (stereo not drawn) [Example 279, 1-[2-[1-(2-methoxypropyl)-5-methyl-pyrazol-4-yl]-6-[5-[(6-methylpyridazin-3-yl)amino]benzimidazol-1-yl]-3-pyridyl]ethanol]	532 nM	2.9 nM	4.7 nM
Cc1ccc(Nc2ccc3c(c2)ncn3-c2ccc(C(C)O)c(-c3cn(CC(C)(F)F)nc3C)n2)nn1 (stereo not drawn) [Example 281, 1-[2-[1-(2,2-difluoropropyl)-3-methyl-pyrazol-4-yl]-6-[5-[(6-methylpyridazin-3-yl)amino]benzimidazol-1-yl]-3-pyridyl]ethanol]	46 nM	1.2 nM	0.6 nM
CCc1cc(-c2nc(-n3cnc4cc(Nc5ccc(C)nn5)ccc43)ccc2C(C)O)c(C)cn1 (stereo not drawn) [Example 283, 1-[2-(2-ethyl-5-methyl-4-pyridyl)-6-[5-[(6-methylpyridazin-3-yl)amino]benzimidazol-1-yl]-3-pyridyl]ethanol]	1050 nM	7.9 nM	21.5 nM
Cc1ccc(Nc2ccc3c(c2)ncn3-c2ccc(C(C)O)c(-c3cnn(CC(C)(F)F)c3C)n2)nn1 (stereo not drawn) [Example 284, 1-[2-[1-(2,2-difluoropropyl)-5-methyl-pyrazol-4-yl]-6-[5-[(6-methylpyridazin-3-yl)amino]benzimidazol-1-yl]-3-pyridyl]ethanol]	167 nM	1.9 nM	2.1 nM
COc1cc(-c2nc(-n3cnc4cc(Nc5ccc(C)nn5)ccc43)ccc2C(C)O)c(C)cn1 (stereo not drawn) [Example 285, 1-[2-(2-methoxy-5-methyl-4-pyridyl)-6-[5-[(6-methylpyridazin-3-yl)amino]benzimidazol-1-yl]-3-pyridyl]ethanol]	497 nM	6.4 nM	11.6 nM
Cc1ccc(Nc2ccc3c(c2)ncn3-c2ccc([C@H](C)O)c(-n3nc(C(F)F)cc3C(F)F)n2)nn1 [Example 287, (1S)-1-[2-[3,5-bis(difluoromethyl)pyrazol-1-yl]-6-[5-[(6-methylpyridazin-3-yl)amino]benzimidazol-1-yl]-3-pyridyl]ethanol]	109 nM	0.4 nM	0.8 nM
Cc1ccc(Nc2ccc3c(c2)ncn3-c2ccc(C(C)O)c(-c3cc(C4CC4)ncc3C)n2)nn1 (stereo not drawn) [Example 289, 1-[2-(2-cyclopropyl-5-methyl-4-pyridyl)-6-[5-[(6-methylpyridazin-3-yl)amino]benzimidazol-1-yl]-3-pyridyl]ethanol]	595 nM	5.8 nM	12.4 nM
COCCOCCOCCOCCOCCOCCOCCOc1ccc(Nc2ccc3c(c2)ncn3-c2ccc(C(C)O)c(-n3nc(C#N)cc3C)n2)nn1 (stereo not drawn) [Example 293, 1-[3-(1-hydroxyethyl)-6-[5-[[6-[2-[2-[2-[2-[2-[2-(2-methoxyethoxy)ethoxy]ethoxy]ethoxy]ethoxy]ethoxy]ethoxy]pyridazin-3-yl]amino]benzimidazol-1-yl]-2-pyridyl]-5-methyl-pyrazole-3-carbonitrile]	132 nM	2.8 nM	6 nM
Cc1ccc(Nc2cc3c(cc2OCCN2CCOCC2)ncn3-c2ccc(C(C)O)c(-n3nc(C#N)cc3C)n2)cn1 (stereo not drawn) [Example 294, 1-[3-(1-hydroxyethyl)-6-[6-[(6-methyl-3-pyridyl)amino]-5-(2-morpholinoethoxy)benzimidazol-1-yl]-2-pyridyl]-5-methyl-pyrazole-3-carbonitrile]	2 nM	3 nM	0.3 nM
Cc1cc(C#N)nn1-c1nc(-n2cnc3ccc(N4CCCC45COC5)cc32)ccc1C(C)O (stereo not drawn) [Example 295, 1-[3-(1-hydroxyethyl)-6-[6-(2-oxa-5-azaspiro[3.4]octan-5-yl)benzimidazol-1-yl]-2-pyridyl]-5-methyl-pyrazole-3-carbonitrile]	10 nM	235 nM	19.6 nM
Cc1cc(C#N)nn1-c1nc(-n2cnc3cc(N4CCCC45COC5)ccc32)ccc1C(C)O (stereo not drawn) [Example 296, 1-[3-(1-hydroxyethyl)-6-[5-(2-oxa-5-azaspiro[3.4]octan-5-l)benzimidazol-1-yl]-2-pyridyl]-5-methyl-pyrazole-3-carbonitrile]	137 nM	90 nM	77 nM
Cc1ccc(Nc2cc3ncn(-c4ccc(C(C)O)c(-n5nc(C#N)cc5C)n4)c3cc2OCCN2CCOCC2)cn1 (stereo not drawn) [Example 297, 1-[3-(1-hydroxyethyl)-6-[5-[(6-methyl-3-pyridyl)amino]-6-(2-morpholinoethoxy)benzimidazol-1-yl]-2-pyridyl]-5-methyl-pyrazole-3-carbonitrile]	10 nM	14.8 nM	6.2 nM

The remaining lines, values ahead:

IC50 (SIK1)	IC50 (SIK3)	IC50 (SIK2)	Compound
800 nM	15.9 nM	6.1 nM	Cc1ccc(Nc2cc3ncn(-c4ccc(C(C)O)c(-n5nc(C#N)cc5C)n4)c3cc2C(F)(F)F)nn1 (stereo not drawn) [Example 275, 1-[3-(1-hydroxyethyl)-6-[5-[(6-methylpyridazin-3-yl)amino]-6-(trifluoromethyl)benzimidazol-1-yl]-2-pyridyl]-5-methyl-pyrazole-3-carbonitrile]
82 nM	1.8 nM	2.3 nM	COC(=N)c1cc(C)n(-c2nc(-n3cnc4cc(Nc5ccc(C)nn5)ccc43)ccc2[C@H](C)O)n1 [Example 276, 1-[3-[(1S)-1-hydroxyethyl]-6-[5-[(6-methylpyridazin-3-yl)amino]benzimidazol-1-yl]-2-pyridyl]-5-methyl-pyrazole-3-carboximidic acid methyl ester]
39 nM	149 nM	26.3 nM	Cc1ccc(Nc2ccc3ncn(-c4ccc([C@H](C)O)c(-n5nc(C#N)cc5C)n4)c3c2)nn1 [Example 280, 1-[3-[(1S)-1-hydroxyethyl]-6-[6-[(6-methylpyridazin-3-yl)amino]benzimidazol-1-yl]-2-pyridyl]-5-methyl-pyrazole-3-carbonitrile]
7 nM	0.8 nM	0.4 nM	Cc1ccc(Nc2cc3ncn(-c4ccc(C(C)O)c(-n5nc(C#N)cc5C)n4)c3cc2OC2COC2)nn1 (stereo not drawn) [Example 282, 1-[3-(1-hydroxyethyl)-6-[5-[(6-methylpyridazin-3-yl)amino]-6-(oxetan-3-yloxy)benzimidazol-1-yl]-2-pyridyl]-5-methyl-pyrazole-3-carbonitrile]
1600 nM	5.8 nM	13.2 nM	Cc1ccc(Nc2ccc3c(c2)ncn3-c2ccc([C@@H](C)O)c(-n3nc(C(F)F)cc3C(F)F)n2)nn1 [Example 288, (1R)-1-[2-[3,5-bis(difluoromethyl)pyrazol-1-yl]-6-[5-[(6-methylpyridazin-3-yl)amino]benzimidazol-1-yl]-3-pyridyl]ethanol]
54 nM	0.5 nM	0.6 nM	Cc1ccc(Nc2ccc3c(c2)ncn3-c2ccc(C(C)O)c(-n3nc(OC(F)F)cc3C)n2)nn1 (stereo not drawn) [Example 290, 1-[2-[3-(difluoromethoxy)-5-methyl-pyrazol-1-yl]-6-[5-[(6-methylpyridazin-3-yl)amino]benzimidazol-1-yl]-3-pyridyl]ethanol]
1 nM	11.9 nM	1.2 nM	Cc1ccc(Nc2ccc3ncn(-c4ccc(C(C)O)c(-n5nc(C#N)c6c5CCN(C)C6)n4)c3c2)nn1 (stereo not drawn) [Example 291, 1-[3-(1-hydroxyethyl)-6-[6-[(6-methylpyridazin-3-yl)amino]benzimidazol-1-yl]-2-pyridyl]-5-methyl-6,7-dihydro-4~{H}-pyrazolo[4,3-c]pyridine-3-carbonitrile]
617 nM	24.2 nM	34.2 nM	Cc1cc(S(C)(=O)=O)c(Nc2ccc3c(c2)ncn3-c2ccc(C(C)O)c(-n3nc(C#N)cc3C)n2)nn1 (stereo not drawn) [Example 292, 1-[3-(1-hydroxyethyl)-6-[5-[(6-methyl-4-methylsulfonyl-pyridazin-3-yl)amino]benzimidazol-1-yl]-2-pyridyl]-5-methyl-pyrazole-3-carbonitrile]
